Measured values taken from publication PMC3115046, “Analyzing Airway Inflammation with Chemical Biology: Dissection of Acidic Mammalian Chitinase Function with a Selective Drug-like Inhibitor” (Chemistry & Biology, 2011).
One block for each molecule: values may come before it.

Experiments:
[1] = test system: allergen-challenged mice; details: ref Matsumoto et al., 2009, cited from earlier work
[2] = test system: murine CHIT1 [mCHIT1]; details: read-out: IC50 murine CHIT1; ref Zheng et al., 2005; Boot et al., 2001; cited from earlier work
[3] = test system: Aspergillus fumigatus chitinase B1 (AfChiB1); set-up: method as in Schuttelkopf et al., 2011; details: ref Schuttelkopf et al., 2011; cited from earlier work
[4] = biological target: human chitotriosidase (hCHIT1) (Homo sapiens, UniProt Q13231); experiment: Chitinase activity assay with fluorescent 4-MU substrate, hCHIT1; format: biochemical; details: read-out: IC50 against hCHIT1
human chitotriosidase (hCHIT1), sequence (Q13231 22-466): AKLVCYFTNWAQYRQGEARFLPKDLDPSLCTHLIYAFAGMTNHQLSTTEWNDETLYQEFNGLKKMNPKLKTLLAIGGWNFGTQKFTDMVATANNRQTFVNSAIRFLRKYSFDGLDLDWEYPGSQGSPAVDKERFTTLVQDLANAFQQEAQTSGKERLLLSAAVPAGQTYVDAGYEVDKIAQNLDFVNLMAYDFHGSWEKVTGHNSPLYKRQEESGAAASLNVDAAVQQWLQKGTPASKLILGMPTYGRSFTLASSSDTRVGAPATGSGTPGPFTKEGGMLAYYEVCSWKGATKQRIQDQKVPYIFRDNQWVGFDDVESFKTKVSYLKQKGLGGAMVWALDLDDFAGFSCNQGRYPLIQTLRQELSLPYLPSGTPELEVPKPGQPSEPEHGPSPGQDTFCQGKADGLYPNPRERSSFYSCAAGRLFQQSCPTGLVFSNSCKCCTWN

SMILES: CNC1=N[C@@H]2[C@@H](O)[C@H](O[C@@H]3O[C@H](CO)[C@@H](O[C@@H]4O[C@H](CO)[C@@H](O)[C@@H](O)[C@H]4NC(C)=O)[C@@H](O)[C@H]3NC(C)=O)[C@@H](CO)[C@@H]2O1 [demethylallosamidin]
allergen or IL-13-induced airway hyperresponsiveness ([1]; Zhu et al., 2004): reduces
eosinophilia in allergen-challenged mice ([1]; Zhu et al., 2004): significantly reduced
neutrophil recruitment in allergic mice [1]: did not result in neutrophil recruitment

SMILES: CC(=O)N[C@H]1[C@H](O[C@H]2[C@@H](O)[C@@H](NC(C)=O)[C@H](O[C@H]3[C@H](O)[C@H]4N=C(N(C)C)O[C@H]4[C@@H]3CO)O[C@@H]2CO)O[C@H](CO)[C@@H](O)[C@H]1O [allosamidin]
IC50 [2]: ~0.05 µM
eosinophilia in allergen-challenged mice ([1]; Zhu et al., 2004): significantly reduced

IC50 [4]: 8.3 ± 0.7 µM
SMILES: Cn1cnc2c1c(=O)n(CCCn1c(=O)c3c(ncn3C)n(C)c1=O)c(=O)n2C [bisdionin C]
ligand efficiency against AfChiB1 [3]: −0.41 kcal·mol^−1·atom^−1
